Measured values published in US20050143468A1, “Method of treating vascular endothelial growth factor mediated vascular disorders” (priority 2002, published 2005).

Tested on: choroidal neovascularization
Experiment: choroidal NV in a mouse model, topical administration
Assay type: in vivo
Conditions: applicant's previous findings

NC(=O)Cc1cccc(C(=O)c2ccccc2)c1N [nepafenac]
choroidal NV: inhibited
